Consider one molecule from patent US11872237B2, “Pharmaceutical composition and preparation method thereof” (Ascentage Pharma (Suzhou) Co., Ltd., priority 2019, dated 2024).

Series [1] can be described thus: Effect of pH value on the solubility of Compound 1 (solution appearance). It is filed as physicochemical. How it is done:
Experimental method: Referring to the process of preparation of solution in Preparation Example 1, the preparation was carried out in an amount of 10 vials, and the solutions with different pH values were prepared according to the following formulations (contents in each vial), and the properties of the prepared solutions were observed.
The thicker of the milky white, the worse of the solubility.

A short description of series [2]: Solubility of Compound 1 in different co-solvents (excess compound, HPLC analysis). The series is classed as physicochemical. To be noted: organic solvent or mixture, thermodynamic from solid, about half an hour. An excerpt:
2. The effects of different co-solvents on the solubility of Compound 1 were observed. The specific results are as follows.
Experimental method: Compound 1 was taken in excess amount, suspended in various solvents, sampled and filtered after about half an hour, and analyzed by HPLC analysis.

The nature of series [3]: Effect of surfactant on solubility and clarity of Compound 1 (appearance observation). To be noted: PEG400, ethanol, mannitol. The series is classed as physicochemical. The protocol:
3. The effects of the Polyoxyl 35 Castor Oil ester used by the present invention as surfactant on the solubility and clarity of the compound 1 were further tested. The specific results are as follows.
Experimental method: Referring to the process of preparation of solution in Preparation Example 1, the preparation was carried out in an amount of 10 vials, and the solutions with different pH values were prepared according to the following formulations (contents in each vial) for appearance observation.
In addition, the effect of Tween80 as surfactant of the present invention on the solubility and clarity of compound 1 was tested. Specific results are as follows.
Experimental Method: referring to the process of preparation of solution in Preparation Example 1, the solution was prepared according to the formulation in the Table below for appearance observation.
Similarly, the effect of Solutol HS-15 as surfactant of the present invention on the solubility and clarity of compound 1 was tested. Specific results are as follows.

A short description of series [4]: General statements on solubility and stability of Compound 1 versus pH. The series is classed as physicochemical.
In another series the test system is cancer cells. The note with it: see WO2014113413; cited from earlier work.

≈ marks a conversion by molar mass, not a printed value.

The solubility is the concentration that dissolves in the medium under given conditions. In the case of `Cc1c(S(C)(=O)=O)c(-c2cc(F)cc(N3CCN(c4ccc(NS(=O)(=O)c5ccc(N[C@H](CCN6CCC(C(=O)OCCCP(=O)(O)O)CC6)CSc6ccccc6)c(S(=O)(=O)C(F)(F)F)c5)cc4)CC3)c2)c(-c2ccc(Cl)cc2)n1C(C)C` [Compound 1, (3R)-1-(3-(4-(4-(4-(3-(2-(4-chlorophenyl)-1-isopropyl-4-methylsulfonyl-5-methyl-1H-pyrrol-3-yl)-5-fluorophenyl)piperazin-1-yl)-phenylaminosulfonyl)-2-trifluoromethylsulfonyl-anilino)-4-phenylthio-butyl)-piperidine-4-carboxylic acid 3-phosphonopropyl ester], the “solubility of Compound 1” value in series [1] (pH 7.888, Table 1 formulation) is recorded as “poor”; in series [1] (pH 8.528, Table 1 formulation), “acceptable”; in series [1] (pH 9.016, Table 1 formulation), “acceptable”; in series [1] (pH 9.326, Table 1 formulation), “best solubility”. Besides, the solubility in series [2] (solvent Ethanol, 25° C.) is 850 µg/mL (≈ 663 µM); in series [2] (solvent Glycerin, 25° C.) it was 450 µg/mL (≈ 351 µM); in series [2] (solvent PEG400, 25° C.) it was 16800 µg/mL (≈ 13100 µM); in series [2] (solvent Propylene glycol, 25° C.), 3100 µg/mL (≈ 2420 µM); in series [4] (acidic or near-neutral solutions) it was “extremely poorly soluble”. Further, the Solution appearance result was “Transparent solution” in series [3] (Table 3a: compound 1 10 mg/ml, Tween80 50 mg, pH 9.0) and “Transparent solution” in series [3] (Table 3b: compound 1 10 mg/ml, Solutol HS-15 240 mg, pH 8.7). In series [4] (alkaline conditions), the dissolution entry is “greatly improved”. Besides, the stability entry in series [4] (alkaline conditions) was “unstable”. In the series on cancer cells, the “inducing apoptosis of cancer cells” value is “effective”.
